Data as given in patent US5410052A, “Symmetrical and unsymmetrical polyalkylamine metal complexes for ligand extraction and generation” (The Regents of the University of California, priority 1990, dated 1995).
Like-named read-outs stand apart in the source and are kept apart here.

Assays:
[1] = Potentiometric pH titration of polyalkylamines: protonation constants (basicity); format: physicochemical; conditions: 25°±0.1° C., ca. 1.5 mM PAA; Ref. 3 determined by applicants
Source text: the equilibrium constants for successive protonations of the PAA compounds are defined by
KHi =[PAA(H^+)i ]/[PAA(H^+)i-1 ] [H^+ ](10)
Where spectrophotometric characterization of a particular cobalt carrier compound has proven satisfactory, both the polyalkylamine and the cobalt carrier compound are characterized by a set of potentiometric pH titrations to determine the basicity of the ligating atoms, the formation constants KML and KMLH, and the apparent oxygen binding equilibrium constants.
Potentiometric titrations are performed using a Fisher or Cole-Palmer pH meter in a sealed, jacketed glass cell equipped with glass and calomel electrodes and with provisions for performing measurements under oxygen-free conditions. The cell is kept at a constant temperature of 25°±0.1° C. by circulating water from a thermostated bath through the cell jacket. The electrodes and pH meter are standardized with commercially available standard buffer solutions (Fisher Scientific). The polyalkylamine ligands and cobalt carrier compounds were each titrated potentiometrically by incrementally adding standard potassium hydroxide solution and recording the pH of the solution after each addition of base. Titrations of the cobalt carrier compounds are carried out under prepurified nitrogen or argon; titrations of oxygenated carrier compounds are performed under oxygen treated with Ascarite to remove carbon dioxide.
All solutions contained ca. 1.5 mM PAA; for titrations of cobalt complexes, the solutions contained, in addition, 1.5 mM CoCl2.
Typical results obtained as outlined above from pH titrations of selected polyalkylamines, cobalt carrier compounds, and oxygen complexes of cobalt carrier compounds are graphically depicted in FIGS. 2, 3, and 4, and summarized in Table III. The values shown in Table III, defined by equations (6)-(8) and (10). above, were derived either by direct measurement from the titration curves obtained, or determined by the iterative best fit of the data to a computer program such as that described by Harris, et al., Inorganic Chemistry, vol. 17, p. 889, 890 (1978). Generally, although the latter values are considered to be more reliable, values obtained by either methods are approximately the same and sufficient for the present evaluation.

[2] = literature, Ref. 1, 2 or 4; cited from earlier work
[3] = set-up: key to Log K02 (symbol): *: Oxygen complex is unstable.; **: No oxygen complex observed; conditions: cobalt complex, literature, cited from earlier work; for Log K02: dimeric oxygen complex, Ref. 1 or 4
[4] = Cyclic voltammetry of Co(PAA)n+ carrier compounds; format: physicochemical; set-up: key to ΔE / EPA / EPC: N.O.: not observed due to low electrochemical activity
Procedure: Cyclic voltammentry experiments were performed under nitrogen or iar for the unoxygenated or oxygenated carrier compounds, respectively, in a cell having a platinum wire auxiliary electrode, a silver-silver chloride reference electrode, and suitable working electrode. The potential between the auxiliary and working electrodes was varied with a Princeton Applied Research (Princeton, N.J.) Scanning Potentiostate at 50 mV/s from a suitable initial with a suitable initial scan direction (Scan Dir.), depending on the electrochemical potentials if interest. All solutions contained 1 mM CoCl2, 1 mM or 1.5 mM PAA, and a supporting electrolyte, and were buffered to a suitable pH, usually about the initial working pH.
Cyclic voltammetry enables the estimation of anode (EPA) and cathode (EPC) half cell potentials, the cell potential ΔE=(EPA -EPC), and an approximate formal reaction potential […]. In addition, estimates of the rate of electron transfer to a particular electrode and electrochemical reversibility of the reaction can be obtained.

[5] = deox, 1.5 mM PAA, pH 9.0, 0.5M NaCl/0.1M Borate, glassy carbon, Einitial -0.3 V, scan +
[6] = ox, 1.5 mM PAA, pH 9.0, 0.5M NaCl/0.1M Borate, glassy carbon, Einitial -0.3 V, scan +
[7] = deox, 1.5 mM PAA, pH 3.0, 0.5M KCl/0.1M K2HPO4, gold, Einitial -0.3 V, scan +
[8] = ox, 1.0 mM PAA, pH 9.0, 0.5M NaCl/0.1M Borate, gold, Einitial +0.12 V, scan +
[9] = ox, 1.0 mM PAA, pH 6.0, 0.5M KCl/0.1M K2HPO4, glassy carbon, Einitial +0.1 V, scan +
[10] = deox, 1.0 mM PAA, pH 7.6, 0.5M NaCl/0.1M K2HPO4, gold, Einitial -0.3 V, scan +
[11] = ox, 1.0 mM PAA, pH 7.6, 0.5M KCl/0.1M K2HPO4, gold, Einitial +0.3 V, scan +
[12] = ox, 1.0 mM PAA, pH 3.0, 0.5M KCl/0.1M K2HPO4, glassy carbon, Einitial -0.05 V, scan +
[13] = deox, 1.0 mM PAA, pH 5.93, 0.5M KCl/0.1M K2HPO4, glassy carbon, Einitial +0.1 V, scan +
[14] = ox, 1.0 mM PAA, pH 5.93, 0.5M KCl/0.1M K2HPO4, glassy carbon, Einitial +0.1 V, scan +
[15] = ox, 1.0 mM PAA, pH 12.0, 0.5M KCl/0.1M K2HPO4, glassy carbon, Einitial +0.19 V, scan -
[16] = deox, 1.0 mM PAA, pH 10.1, 0.5M KCl/0.1M K2HPO4, glassy carbon, Einitial +0.15 V, scan -
[17] = ox, 1.0 mM PAA, pH 10.1, 0.5M KCl/0.1M K2HPO4, glassy carbon, Einitial +0.1 V, scan +

SMILES	Log K1 [1]	Log K2 [1]	Log K3 [1]	Log K1 [2]	Log K2 [2]	Log K3 [2]	Log K4 [2]	Log K02 [3]	Log K4 [1]	also measured
c1ccc(CNCc2cccc(CNCc3ccccn3)n2)nc1 [compound 21]	7.74	6.69	2.95	7.55	6.86	3.2	2.9			Log K02 (symbol) ([3]; Ref. 2): *
NCCNCCNCCNCCN [compound 33]				9.85	9.27	8.19	5.08	15.83		EPA [4, 5]: -0.33 V; EPC [4, 5]: -0.45 V; E° [4, 5]: -0.39 V; ΔE [4, 5]: 0.12 V; EPA [4, 6]: 0.7 V; EPC [4, 6]: -0.5 V; ΔE [4, 6]: 1.2 V; Log K5 [2]: 3.43
c1ccc(CNCCNCCNCc2ccccn2)nc1 [compound 62]	8.91	6.95	3.64	8.88	7.04	3.82	1.44	11.4		EPA [4, 7]: 0.0 V; EPC [4, 7]: -0.1 V; E° [4, 7]: -0.05 V; ΔE [4, 7]: 0.1 V; EPA [4, 8]: 0.75 V; EPC [4, 8]: -0.55 V; ΔE [4, 8]: 1.3 V
c1ccc(CCNCc2cccc(CNCCc3ccccn3)n2)nc1 [compound 63]	8.75	7.61	3.81							EPA [4, 9]: N.O.; EPC [4, 9]: N.O.; ΔE [4, 9]: N.O.
c1ccc(CNCCCNCCCNCc2ccccn2)nc1 [compound 64]	9.54	7.44	6.34	9.92	7.63	6.76	1.79	7.7		EPA [4, 10]: 0.4 V; EPC [4, 10]: -0.45 V; E° [4, 10]: -0.05 V; ΔE [4, 10]: 0.85 V; EPA [4, 11]: 0.08 V; EPC [4, 11]: -0.4 V; ΔE [4, 11]: 1.2 V
NCCNCc1cccc(CNCCN)n1 [compound 69]	9.31	8.6	5.9						4.74	EPA [4, 12]: 0.5 V; EPC [4, 12]: -0.2 V; ΔE [4, 12]: 0.7 V
c1ccc(CNCCCNCCNCc2ccccn2)nc1 [compound 72]	8.6	6.75	4.76							EPA [4, 13]: 0.03 V; EPC [4, 13]: 0.66 V; E° [4, 13]: -0.02 V; ΔE [4, 13]: 0.11 V; EPA [4, 14]: 0.66 V; EPC [4, 14]: -0.07 V; ΔE [4, 14]: 0.73 V
c1c[nH]c(CNCCCNCCCNCc2ncc[nH]2)n1 [compound 73]				9.76	7.22	6.51	3.92	8.63		Log K5 [2]: 3.29
c1nc(CNCCCNCCCNCc2c[nH]cn2)c[nH]1 [compound 74]	9.75	8.58	7.2	10.12	8.62	7.36	4.51	9.49	4.75	Log K5 [1]: 3.75; Log K5 [2]: 3.82
c1nc(CNCCNCCNCc2c[nH]cn2)c[nH]1 [compound 75]	9.15	8.03	4.92	9.22	8.18	4.91	3.90		3.91	Log K5 [2]: 2.92
CN(CCCNCc1ccccn1)CCCNCc1ccccn1 [compound 76]	9.15	7.20	5.79						3.40	EPA [4, 15]: 0.25 V; EPC [4, 15]: -0.35 V; ΔE [4, 15]: 0.6 V
c1ccc(CNCCCCNCCCNCc2ccccn2)nc1 [compound 78]	9.36	7.69	6.60							EPA [4, 16]: 0.18 V; EPC [4, 16]: 0.1 V; E° [4, 16]: 0.14 V; ΔE [4, 16]: 0.08 V; EPA [4, 17]: 0.185 V; EPC [4, 17]: 0.055 V; E° [4, 17]: 0.12 V; ΔE [4, 17]: 0.13 V
Cc1cccc(CNCCNCCNCc2cccc(C)n2)n1 [compound 80]	8.52	6.72	4.1						3.28	Log K5 [1]: 2.86
Cc1cccc(CNCCCNCCCNCc2cccc(C)n2)n1 [compound 81]	9.44	7.40	6.25						3.40	
